From patent US20250059231A1, “Protease inhibitors” (priority 2021, published 2025)
Where a SMILES comes first, the peptide text is derived from it. The star is where a group is joined. Palmitoyl = CCCCCCCCCCCCCCCC(=O)*

Columns and labels:
DENV protease = biological target: T1, DENV protease (Dengue virus type 2, UniProt P29990); experiment: biochemical; conditions: for inhibition at 50 µM: read-out: inhibition of DENV
T1 construct: The virus-encoded dengue protease comprises the amino-terminal 180 amino acids of NS3 (NS3pro) of the polyprotein
T1 sequence (P29990 1398-1437): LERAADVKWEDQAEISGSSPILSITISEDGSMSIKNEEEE
T1 sequence (P29990 1476-1653): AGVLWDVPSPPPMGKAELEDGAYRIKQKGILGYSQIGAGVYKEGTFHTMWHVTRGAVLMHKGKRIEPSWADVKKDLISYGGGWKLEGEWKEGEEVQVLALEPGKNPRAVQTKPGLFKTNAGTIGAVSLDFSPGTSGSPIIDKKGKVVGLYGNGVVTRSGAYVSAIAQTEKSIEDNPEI
In short: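 DENV protease (100 nM) was pre-incubated 15 min with inhibitors in 50 mM Tris-HCl pH 9.0, 10% ethylene glycol, 0.0016% Brij 58. FRET substrate (50 μM final) started the reaction, monitored 15 min as RFU/s slope. IC50 came from triplicate means versus concentration.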

[1] = system: Dengue virus 2 (DENV2, ATCC VR-1584); experiment: DENV2 infection in AG129 mice: viral load in plasma (plaque assay); assay type: in vivo; conditions: b.i.d
Experimental: The purpose of this study was to determine the efficacy of the compounds on Dengue virus 2 (DENV2, ATCC® VR-1584™) infection in AG129 mice.
Six groups of AG129 mice, 6-8 weeks old, with 9 mice per group were used to test compounds according to table 3.1.1. Animal room environment was monitored for temperature and relative humidity twice per day. The temperature range was 22° C.±3° C. and humidity range was 30-70%. The animals were provided with 12 hours light and 12 hours darkness. Feed and drinking water was provided ad libitum. Compounds 43 and 113 were tested.
Twenty-four hours post treatment (Day 0), animals were injected intraperitoneally (IP) with 0.2 ml of virus suspension (˜5×10^7/animal).
Administration of compounds and vehicle to animals started twenty four hours before infection (Day −1). Animals were treated daily (From Day-1 to day 4) as per the experimental design shown below in table 3.1.5. Animals were monitored for general clinical signs, morbidity and mortality. Body weights were measured daily.
Blood was collected on days-1, 0, 1, 2, 3, 4 to 5.
BHK-21 cells were cultured to approximately 80% confluency in 24-well plates (NUNC, NY, USA). Plasma samples were 10-fold serially diluted in RPMI 1640 (GIBCO). BHK-21 monolayers were infected with 100 μl of each virus dilution. After incubation at 37° C. and 5% CO2 atmosphere for one hour with rocking at 15 min intervals, the medium was decanted and 1 ml of 1% (w/v)carboxymethyl cellulose in RPMI supplemented with 2% FCS was added to each well. After four days incubation at 37° C. in 5% CO2, the cells were fixed with 4% paraformaldehyde and stained for 30 min with […] of 1% crystal violet dissolved in 37% formaldehyde. After thorough rinsing with water, plates were dried and the plaques were scored visually.
The Mean±SD Log10PFU/ml, relative Mean±SD spleen weight, Mean±SD biomarker concentrations were estimated in each group. Significant differences between group means and control were analyzed by one-way ANOVA, followed by a Dunnett's multiple comparison test, using GraphPad Prism 5 at 95% confidence levels. A p value of <0.05 was considered as significant.

[2] = parameters: species or system mice; conditions: mouse, in vivo
Source text: FIG. 5A-multidose PK-profiles of compound 113 in mice after intravenous (IV), intraperitoneal (IP) and subcutaneous (SC) administration to mice (dosed twice per day for 5 days, mean of 3 mice per group).
FIG. 5D-multidose PK-profiles of compound 43 in mice after intravenous (IV), intraperitoneal (IP) and subcutaneous (SC) administration to mice (dosed twice per day for 5 days, mean of 3 mice per group).
Similar data was obtained with compound 43 (FIG. 5D)

[3] = Tissue distribution (biodistribution) in rats; assay type: in vivo; conditions: FIG. 5C after intravenous injection
Source text: FIG. 5C-tissue distribution after intravenous injection in rats, measured by ratio concentration tissue over plasma.
Following administration, molecules reach the systemic circulation via either the blood capillaries or the lymphatic system.

WNV protease = biological target: T2, WNV protease (West Nile virus, UniProt P06935); experiment: WNV protease assay (analogous procedure); assay type: biochemical; conditions: at 50 μM
T2 construct: a trypsin-like serine protease domain in the N-terminal region of the flaviviral NS3 proteins
T2 sequence (P06935 1424-1463): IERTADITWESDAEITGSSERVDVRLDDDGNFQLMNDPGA
T2 sequence (P06935 1502-1679): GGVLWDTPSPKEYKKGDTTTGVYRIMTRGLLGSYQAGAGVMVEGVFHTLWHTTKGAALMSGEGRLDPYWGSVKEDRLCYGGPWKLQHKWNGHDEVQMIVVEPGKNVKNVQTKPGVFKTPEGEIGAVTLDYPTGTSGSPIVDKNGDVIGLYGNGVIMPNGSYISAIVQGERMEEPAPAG
In short: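 Adapted from the DENV protease assay: inhibitors preincubated 15 min with protease (DENV at 100 nM) in 50 mM Tris-HCl pH 9.0, 10% ethylene glycol, 0.0016% Brij 58, then FRET substrate (50 μM final) added.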

human Trypsin = human Trypsin (Homo sapiens, UniProt P07477); experiment: Selectivity screening, human serine protease trypsin; assay type: biochemical; conditions: read-out: inhibition of human Trypsin
In short: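 Active candidates were counter-screened for selectivity against the human serine protease trypsin in a biochemical assay similar to the flavivirus protease assay. Cleavage of a substrate by protease activity raises fluorescence, which is read on a microtiter fluorescence plate reader. Compounds are diluted from 10 mM DMSO stocks and tested in triplicate, and inhibition of trypsin is reported.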

## CCCCCCCCCCCCCCCC(=O)N[C@@H](CCCCN)CC(=O)N[C@@H](C)C(=O)N[C@@H](C)CC(=O)N[C@H](CCCCN)C(N)=O (stereo in doubt) [compound 113]
DENV protease
  inhibition at 50 µM: ≥ 25%
DENV protease; biochemical and cellular infection assays
  inhibition of DENV protease (in words): potent and specific inhibition
[1]; Day 2, 10 mg/kg I.P
  Mean + SD Log10PFU/ml Plasma: 3.79 ± 0.10 Log10PFU/ml
[1]; Day 2, 20 mg/kg I.P
  Mean + SD Log10PFU/ml Plasma: 3.07 ± 0.28 Log10PFU/ml
[1]; Day 4, 10 mg/kg I.P
  Mean + SD Log10PFU/ml Plasma: 4.65 ± 0.08 Log10PFU/ml
[1]; Day 5, 10 mg/kg I.P
  Mean + SD Log10PFU/ml Plasma: 3.66 ± 0.11 Log10PFU/ml
[1]; Day 5, 20 mg/kg I.P
  Mean + SD Log10PFU/ml Plasma: 3.77 ± 0.11 Log10PFU/ml
[2]
  pharmacokinetic profiles: reliable pharmacokinetic profiles with limited inter animal variability and dose proportionality
[2]; sc
  elimination in blood plasma: slow elimination
  pharmacokinetic behaviour when administered subcutaneously: improved pharmacokinetic behaviour
[3]
  tissue distribution, concentration in tissue (liver and spleen) versus plasma: could reach the main target sites of dengue

## CCCCCCCCCCCCCCCC(=O)N[C@@H](CCCNC(=N)N)C(=O)N[C@@H](CCC(N)=O)C(=O)N[C@@H](Cc1ccccc1)C(N)=O [compound 43] (Palmitoyl-Arg-Gln-Phe-NH2)
DENV protease
  inhibition at 50 µM: ≥ 25%
WNV protease
  inhibition at 50 µM: ≥ 25%
Human Trypsin; at 5 μM
  inhibition at 5 µM: < 10%
Human Trypsin; at 25 μM
  inhibition at 25 µM: < 20%
[1]; Day 2, 10 mg/kg I.P
  Mean + SD Log10PFU/ml Plasma: 3.36 ± 0.41 Log10PFU/ml
[1]; Day 2, 20 mg/kg I.P
  Mean + SD Log10PFU/ml Plasma: 3.48 ± 0.25 Log10PFU/ml
[1]; Day 5, 10 mg/kg I.P
  Mean + SD Log10PFU/ml Plasma: 3.28 ± 0.21 Log10PFU/ml
[1]; Day 5, 20 mg/kg I.P
  Mean + SD Log10PFU/ml Plasma: 3.06 ± 0.31 Log10PFU/ml
[2]; sc
  pharmacokinetic behaviour when administered subcutaneously: improved pharmacokinetic behaviour
